From US10670605B2, “Cysteine reactive probes and uses thereof” (The Scripps Research Institute, priority 2015, dated 2020)
Blank lines part the entries; values can stand above or below the compound they belong to.

Tests used:
Experiment in all cases: Competitive isoTOP-ABPP in situ (fragment-treated cells)
Assay type in all cases: cell-based
[1] = molecular target: T1, cysteines in MDA-MB-231 and Ramos cells (Homo sapiens, UniProt Q9UMS0)
T1 sequence (Q9UMS0 10-254): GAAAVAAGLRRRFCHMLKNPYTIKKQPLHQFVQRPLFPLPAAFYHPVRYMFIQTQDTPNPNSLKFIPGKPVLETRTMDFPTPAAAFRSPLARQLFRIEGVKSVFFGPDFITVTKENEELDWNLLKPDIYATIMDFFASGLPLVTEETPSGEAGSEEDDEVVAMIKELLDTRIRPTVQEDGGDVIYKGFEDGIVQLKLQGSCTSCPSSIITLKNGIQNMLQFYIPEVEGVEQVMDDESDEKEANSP

[2] = molecular target: T2, cysteines in MDA-MB-231 and Ramos cells (Homo sapiens, UniProt Q9Y3D0)
T2 sequence (Q9Y3D0 1-163): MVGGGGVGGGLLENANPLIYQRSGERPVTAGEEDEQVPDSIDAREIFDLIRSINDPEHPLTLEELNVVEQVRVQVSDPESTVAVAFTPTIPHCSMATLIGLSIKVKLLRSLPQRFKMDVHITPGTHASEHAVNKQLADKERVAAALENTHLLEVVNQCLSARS

[3] = molecular target: cysteines in MDA-MB-231 and Ramos cells (Homo sapiens, UniProt P83731)
[4] = molecular target: T3, cysteines in MDA-MB-231 and Ramos cells (Homo sapiens, UniProt P10599)
T3 sequence (P10599 1-105): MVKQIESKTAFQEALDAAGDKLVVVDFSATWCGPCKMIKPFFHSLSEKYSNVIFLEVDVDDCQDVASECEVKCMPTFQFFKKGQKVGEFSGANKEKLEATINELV

[5] = molecular target: T4, cysteines in MDA-MB-231 and Ramos cells (Homo sapiens, UniProt Q13428)
T4 sequence (Q13428 1-1488): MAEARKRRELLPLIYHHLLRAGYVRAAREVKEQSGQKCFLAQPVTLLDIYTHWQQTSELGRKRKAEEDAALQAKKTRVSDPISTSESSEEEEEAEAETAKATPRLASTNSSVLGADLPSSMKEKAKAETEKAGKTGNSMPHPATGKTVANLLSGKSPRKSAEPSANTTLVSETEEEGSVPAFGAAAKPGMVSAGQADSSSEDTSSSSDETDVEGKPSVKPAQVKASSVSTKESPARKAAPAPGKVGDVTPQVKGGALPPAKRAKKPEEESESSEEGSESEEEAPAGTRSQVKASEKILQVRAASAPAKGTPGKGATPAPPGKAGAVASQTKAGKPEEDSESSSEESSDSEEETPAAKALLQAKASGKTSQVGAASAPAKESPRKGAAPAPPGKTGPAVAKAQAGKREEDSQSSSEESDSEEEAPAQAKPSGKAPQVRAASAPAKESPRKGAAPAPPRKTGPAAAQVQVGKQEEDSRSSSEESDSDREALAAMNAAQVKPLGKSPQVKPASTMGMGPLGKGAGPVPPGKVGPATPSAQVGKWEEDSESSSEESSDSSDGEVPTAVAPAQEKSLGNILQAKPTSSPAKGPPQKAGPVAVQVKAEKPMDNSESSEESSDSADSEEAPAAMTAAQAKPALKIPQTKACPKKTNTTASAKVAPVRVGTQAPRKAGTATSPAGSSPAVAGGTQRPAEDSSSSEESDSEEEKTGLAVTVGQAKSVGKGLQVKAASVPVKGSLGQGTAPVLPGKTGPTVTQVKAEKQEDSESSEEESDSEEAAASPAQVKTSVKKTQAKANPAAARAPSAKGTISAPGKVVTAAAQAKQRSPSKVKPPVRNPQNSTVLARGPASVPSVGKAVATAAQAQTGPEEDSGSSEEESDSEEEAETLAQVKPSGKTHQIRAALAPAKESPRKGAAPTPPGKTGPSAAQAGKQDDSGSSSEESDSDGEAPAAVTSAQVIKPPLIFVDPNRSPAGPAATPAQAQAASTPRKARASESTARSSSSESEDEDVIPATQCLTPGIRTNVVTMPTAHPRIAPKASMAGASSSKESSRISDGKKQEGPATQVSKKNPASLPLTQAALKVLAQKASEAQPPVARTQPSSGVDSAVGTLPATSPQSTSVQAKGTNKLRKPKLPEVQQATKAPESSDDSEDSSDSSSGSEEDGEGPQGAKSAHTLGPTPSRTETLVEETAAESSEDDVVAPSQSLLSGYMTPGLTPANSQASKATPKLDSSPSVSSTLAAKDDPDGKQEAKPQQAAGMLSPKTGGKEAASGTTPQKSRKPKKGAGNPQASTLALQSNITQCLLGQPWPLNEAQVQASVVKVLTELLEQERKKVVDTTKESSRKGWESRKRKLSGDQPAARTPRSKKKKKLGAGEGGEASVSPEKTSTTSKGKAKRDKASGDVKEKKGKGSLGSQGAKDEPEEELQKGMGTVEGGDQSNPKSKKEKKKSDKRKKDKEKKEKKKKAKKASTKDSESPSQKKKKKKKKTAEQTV

[6] = molecular target: T5, cysteines in MDA-MB-231 and Ramos cells (Homo sapiens, UniProt Q15233)
T5 sequence (Q15233 1-471): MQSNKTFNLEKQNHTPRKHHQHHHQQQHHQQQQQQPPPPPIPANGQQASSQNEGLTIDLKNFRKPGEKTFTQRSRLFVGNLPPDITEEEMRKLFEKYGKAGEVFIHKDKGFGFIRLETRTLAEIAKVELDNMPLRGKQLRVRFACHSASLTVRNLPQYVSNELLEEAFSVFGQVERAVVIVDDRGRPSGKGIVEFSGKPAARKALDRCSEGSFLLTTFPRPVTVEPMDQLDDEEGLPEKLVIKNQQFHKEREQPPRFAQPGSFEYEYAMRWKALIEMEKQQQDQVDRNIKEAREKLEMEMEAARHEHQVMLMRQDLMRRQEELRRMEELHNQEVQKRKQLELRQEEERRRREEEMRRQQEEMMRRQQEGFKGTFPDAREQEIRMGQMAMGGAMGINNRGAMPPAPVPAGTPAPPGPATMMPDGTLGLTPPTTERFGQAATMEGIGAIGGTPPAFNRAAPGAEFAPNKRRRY

[7] = molecular target: cysteines in MDA-MB-231 and Ramos cells (Homo sapiens, UniProt Q15021)
cysteines in MDA-MB-231 and Ramos cells (Homo sapiens, UniProt Q15021), sequence (Q15021 whole entry): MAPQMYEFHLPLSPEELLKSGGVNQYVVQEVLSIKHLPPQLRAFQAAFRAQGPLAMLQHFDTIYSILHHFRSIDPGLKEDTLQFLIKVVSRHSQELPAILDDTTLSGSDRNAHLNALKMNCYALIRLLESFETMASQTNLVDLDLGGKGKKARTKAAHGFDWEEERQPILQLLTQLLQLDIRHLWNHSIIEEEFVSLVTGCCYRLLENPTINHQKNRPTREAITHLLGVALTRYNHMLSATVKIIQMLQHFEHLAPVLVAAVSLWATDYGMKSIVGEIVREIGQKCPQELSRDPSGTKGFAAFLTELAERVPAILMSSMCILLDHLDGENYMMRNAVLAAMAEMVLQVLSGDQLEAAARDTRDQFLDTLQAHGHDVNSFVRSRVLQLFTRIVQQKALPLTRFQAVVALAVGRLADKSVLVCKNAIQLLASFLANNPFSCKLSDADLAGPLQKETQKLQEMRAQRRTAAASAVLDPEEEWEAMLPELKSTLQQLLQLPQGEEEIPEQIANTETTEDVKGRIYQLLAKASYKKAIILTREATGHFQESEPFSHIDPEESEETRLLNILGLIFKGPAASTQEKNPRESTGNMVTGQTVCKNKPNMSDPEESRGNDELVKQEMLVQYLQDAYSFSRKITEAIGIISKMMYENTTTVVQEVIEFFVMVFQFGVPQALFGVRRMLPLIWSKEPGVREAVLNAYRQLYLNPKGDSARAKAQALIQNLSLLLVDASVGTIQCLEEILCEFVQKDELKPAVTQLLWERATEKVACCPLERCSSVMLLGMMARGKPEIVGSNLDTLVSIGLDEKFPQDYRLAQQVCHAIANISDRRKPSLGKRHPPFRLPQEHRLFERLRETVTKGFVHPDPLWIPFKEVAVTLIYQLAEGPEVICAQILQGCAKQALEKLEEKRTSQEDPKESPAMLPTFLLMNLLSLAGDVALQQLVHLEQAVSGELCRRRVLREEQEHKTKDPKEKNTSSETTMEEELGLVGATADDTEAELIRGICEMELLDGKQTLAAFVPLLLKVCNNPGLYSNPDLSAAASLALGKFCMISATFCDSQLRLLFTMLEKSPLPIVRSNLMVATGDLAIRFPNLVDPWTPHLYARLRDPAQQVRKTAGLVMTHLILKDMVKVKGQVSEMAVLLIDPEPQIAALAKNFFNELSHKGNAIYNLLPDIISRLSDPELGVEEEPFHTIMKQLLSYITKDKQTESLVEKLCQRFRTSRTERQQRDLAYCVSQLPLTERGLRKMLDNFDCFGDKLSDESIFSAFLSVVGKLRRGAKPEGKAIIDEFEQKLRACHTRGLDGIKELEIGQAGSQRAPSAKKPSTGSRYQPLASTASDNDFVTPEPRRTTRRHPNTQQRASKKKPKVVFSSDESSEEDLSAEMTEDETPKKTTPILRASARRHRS

SMILES: O=C(CCl)N1CCC(Cc2ccccc2)CC1 [compound 9]
isoTOP-ABPP reactivity Q15233_C145 NONO ([6]; 200 μM, insitu, 231): 1.4
isoTOP-ABPP reactivity Q15021_C439 NCAPD2 ([7]; 200 μM, insitu, 231): 6.1
isoTOP-ABPP reactivity P83731_C6 RPL24 ([3]; 200 μM, insitu, 231): 4.3
isoTOP-ABPP reactivity P10599_C32 TXN ([4]; 200 μM, insitu, 231): 20.0

SMILES: Cn1cc(S(=O)(=O)N2CCOCC2)cc1C(=O)NC(=O)CCl [compound 11]
isoTOP-ABPP ratio Q15233_C145 ([6]; 100 μM in situ 231): 1.2
isoTOP-ABPP ratio Q15021_C439 ([7]; 100 μM in situ 231): 0.9
isoTOP-ABPP ratio Q9Y3D0_C93 ([2]; 100 μM in situ 231): 0.9
isoTOP-ABPP ratio P83731_C6 ([3]; 100 μM in situ 231): 0.5
isoTOP-ABPP ratio P10599_C32 ([4]; 100 μM in situ 231): 13.0
isoTOP-ABPP ratio Q13428_C38 ([5]; 100 μM in situ 231): 1.1
isoTOP-ABPP ratio Q13428_C1298 ([5]; 100 μM in situ 231): 0.8

SMILES: O=C(CCl)NCCc1c[nH]c2ccccc12 [compound 13]
isoTOP-ABPP ratio Q9UMS0_C213 ([1]; 200 μM, insitu, 231): 1.6
isoTOP-ABPP ratio Q15233_C145 ([6]; 200 μM, insitu, 231): 1.0
isoTOP-ABPP ratio Q15233_C145 ([6]; 200 μM, insitu, ramos): 1.1
isoTOP-ABPP ratio Q9Y3D0_C93 ([2]; 200 μM, insitu, ramos): 1.4
isoTOP-ABPP ratio P83731_C6 ([3]; 200 μM, insitu, 231): 0.7
isoTOP-ABPP ratio P83731_C6 ([3]; 200 μM, insitu, ramos): 1.0
isoTOP-ABPP ratio P10599_C32 ([4]; 200 μM, insitu, 231): 7.9
isoTOP-ABPP ratio P10599_C32 ([4]; 200 μM, insitu, ramos): 4.1
isoTOP-ABPP ratio Q13428_C38 ([5]; 200 μM, insitu, 231): 1.6

The remaining lines, values ahead:

isoTOP-ABPP reactivity Q9UMS0_C213 NFU1 ([1]; 200 μM, insitu, 231): 7.4
isoTOP-ABPP reactivity Q9Y3D0_C93 FAM96B ([2]; 200 μM, insitu, 231): 20.0
isoTOP-ABPP reactivity P83731_C6 RPL24 ([3]; 200 μM, insitu, 231): 2.4
isoTOP-ABPP reactivity P10599_C32 TXN ([4]; 200 μM, insitu, 231): 7.9
isoTOP-ABPP reactivity Q13428_C38 TCOF1 ([5]; 200 μM, insitu, 231): 3.3
isoTOP-ABPP reactivity Q13428_C1298 TCOF1 ([5]; 200 μM, insitu, 231): 4.7
SMILES: COc1ccc2c(c1)CCCN2C(=O)CCl [compound 2]

isoTOP-ABPP reactivity Q9UMS0_C213 NFU1 ([1]; 100 μM in situ 231): 4.4
isoTOP-ABPP reactivity Q15233_C145 NONO ([6]; 100 μM in situ 231): 1.6
isoTOP-ABPP reactivity Q15021_C439 NCAPD2 ([7]; 100 μM in situ 231): 2.2
isoTOP-ABPP reactivity Q9Y3D0_C93 FAM96B ([2]; 100 μM in situ 231): 20.0
isoTOP-ABPP reactivity P83731_C6 RPL24 ([3]; 100 μM in situ 231): 0.7
isoTOP-ABPP reactivity P10599_C32 TXN ([4]; 100 μM in situ 231): 3.3
isoTOP-ABPP reactivity Q13428_C38 TCOF1 ([5]; 100 μM in situ 231): 2.8
isoTOP-ABPP reactivity Q13428_C1298 TCOF1 ([5]; 100 μM in situ 231): 5.6
SMILES: COc1ccc(C2CC(c3cccs3)=NN2C(=O)CCl)cc1 (stereo not shown) [compound 4]

isoTOP-ABPP reactivity Q15233_C145 NONO ([6]; 200 μM, insitu, 231): 12.0
isoTOP-ABPP reactivity Q15021_C439 NCAPD2 ([7]; 200 μM, insitu, 231): 0.6
isoTOP-ABPP reactivity P10599_C32 TXN ([4]; 200 μM, insitu, 231): 5.9
isoTOP-ABPP reactivity Q13428_C38 TCOF1 ([5]; 200 μM, insitu, 231): 2.0
isoTOP-ABPP reactivity Q13428_C1298 TCOF1 ([5]; 200 μM, insitu, 231): 20.0
SMILES: COc1cc2c(cc1OC)CN(C(=O)CCl)CC2 [compound 8]

isoTOP-ABPP ratio Q9UMS0_C213 ([1]; 200 μM, insitu, 231): 20.0
isoTOP-ABPP ratio Q15233_C145 ([6]; 200 μM, insitu, ramos): 2.2
isoTOP-ABPP ratio Q15021_C439 ([7]; 200 μM, insitu, 231): 5.2
isoTOP-ABPP ratio Q9Y3D0_C93 ([2]; 200 μM, insitu, 231): 2.1
isoTOP-ABPP ratio P83731_C6 ([3]; 200 μM, insitu, 231): 0.4
isoTOP-ABPP ratio P83731_C6 ([3]; 200 μM, insitu, ramos): 2.0
isoTOP-ABPP ratio P10599_C32 ([4]; 200 μM, insitu, 231): 3.8
isoTOP-ABPP ratio Q13428_C38 ([5]; 200 μM, insitu, 231): 4.2
isoTOP-ABPP ratio Q13428_C1298 ([5]; 200 μM, insitu, 231): 5.9
SMILES: O=C(CCl)N1CCN(S(=O)(=O)c2ccccc2F)CC1 [compound 10]

isoTOP-ABPP ratio Q9UMS0_C213 ([1]; 200 μM, insitu, 231): 20.0
isoTOP-ABPP ratio Q15233_C145 ([6]; 200 μM, insitu, 231): 2.4
isoTOP-ABPP ratio Q15021_C439 ([7]; 200 μM, insitu, 231): 6.7
isoTOP-ABPP ratio P83731_C6 ([3]; 200 μM, insitu, 231): 0.3
isoTOP-ABPP ratio P10599_C32 ([4]; 200 μM, insitu, 231): 20.0
isoTOP-ABPP ratio Q13428_C38 ([5]; 200 μM, insitu, 231): 4.7
isoTOP-ABPP ratio Q13428_C1298 ([5]; 200 μM, insitu, 231): 20.0
SMILES: O=C(CCl)NC(=O)NC12CC3CC(CC(C3)C1)C2 [compound 12]
